Data on three molecules can be found in the NIST ThermoML archive (doi:10.1016/j.jct.2006.12.003).

A short description of series [1]: refractive index (Na D-line) (dimensionless). The conditions noted are these: 293.15 K; 101.33 kPa; Liquid; Standard Abbe refractometry.
The conditions of series [2]: 293.15 K; 101.33 kPa; Liquid.

Molecules are shown by their SMILES. Numbers after ± are expanded uncertainties.

One may read the refractive index as the speed of light in vacuum divided by its phase velocity in the sample. A word on the mass density: it is the mass of a sample divided by its volume. As for `ClCCCl` [1,2-dichloroethane], in series [1], the refractive index stood at 1.4445 ± 0.0007. Further, the mass density in series [2] is 1251 ± 1 kg/m3.

With `CC(=O)O` [acetic acid], the refractive index in series [1] was 1.3713 ± 0.0007. Moreover, the mass density in series [2] was 1049.4 ± 0.3 kg/m3.

As to `Cc1ccccc1` [toluene], the refractive index in series [1] is recorded as 1.4953 ± 0.0007. Besides, in series [2], the mass density was 862.2 ± 0.5 kg/m3.
